# Assay results reported in patent US20180228827A1, “FIXED-DOSE COMBINATIONS OF ANTIVIRAL COMPOUNDS” (MERCK SHARP & DOHME CORP., priority 2015, published 2018).
# Test: pH-dependent solubility profile of Compound II
# Format: physicochemical
# Details: particularly between pH 1-4
compound,measurement,value
"COC(=O)N[C@H](C(=O)N1CCC[C@H]1c1ncc(-c2cc(F)c3c(c2)O[C@@H](c2cnc(C4CC4)s2)n2c-3cc3cc(-c4cnc([C@@H]5CCCN5C(=O)[C@@H](NC(=O)OC)C(C)C)[nH]4)ccc32)[nH]1)C(C)C [Compound II, dimethyl ((2S,2′S)-((2S,2′S)-2,2′-(5,5′-((S)-6-(2-cyclopropylthiazol-5-yl)-1-fluoro-6H-benzo[5,6][1,3]oxazino[3,4-a]indole-3,10-diyl)bis(1H-imidazole-5,2-diyl))bis(pyrrolidine-2,1-diyl))bis(3-methyl-1-oxobutane-2,1-diyl))dicarbamate]",solubility profile,sharp pH-dependent solubility profile
